Assay results taken from patent publication US20070129288A1, “Antibacterial amide macrocycles” (BAYER HEALTHCARE AG, priority 2002, published 2007).
In brackets after ≈: the same amount, converted by molar mass. Where a name gives a salt, the structure may show the parent alone. Read-outs that look alike come from different tables or passages of the source.

Assays:
[1] = system: translation of firefly luciferase, Escherichia coli MRE 600 S30 extract; experiment: In vitro transcription-translation with E. coli extracts; assay type: biochemical; details: plasmid pBESTLuc, 30° C., 60 min, luciferase luminescence, read-out: IC50 E. coli MRE600 Translation
Experimental: In vitro Transcription-translation with E. coli Extracts
An S30 extract is prepared by harvesting logarithmically growing Escherichia coli MRE 600 (M. Müller; University Freiburg), washing and employing them as described for the in vitro transcription-translation assay (Müller, M. and Blobel, G. Proc Natl Acad Sci USA (1984) 81, pp. 7421-7425).
1 μl of cAMP (11.25 mg/ml) are additionally added per 50 μl of reaction mix to the reaction mix for the in vitro transcription-translation assay. The assay mixture amounts to 105 μl, with 5 μl of the substance to be tested being introduced in 5% strength DMSO. 1 μg/100 μl of mixture of the plasmid pBESTLuc (Promega, Germany) are used as transcription template. After incubation at 30° C. for 60 min, 50 μl of luciferin solution (20 mM tricine, 2.67 mM MgSO4, 0.1 mM EDTA, 33.3 mM DTT pH 7.8, 270 μM CoA, 470 μM luciferin, 530 μM ATP) are added, and the resulting bioluminescence is measured in a luminometer for 1 minute. The IC50 is indicated by the concentration of an inhibitor which leads to 50% inhibition of the translation of firefly luciferase.

B. catarrhalis M3 = experiment: Minimum inhibitory concentration (MIC), liquid dilution test; assay type: cell-based; details: Moraxella catarrhalis, minimal medium with 0.4% BH broth, 37° C., 18-24 h
Experimental: (§1) Determination of the Minimum Inhibitory Concentration (MIC):
(§2) The minimum inhibitory concentration (MIC) is the minimum concentration of an antibiotic with which the growth of a test microbe is inhibited over 18-24 h. The inhibitor concentration can in these cases be determined by standard microbiological methods (see, for example, The National Committee for Clinical Laboratory Standards. Methods for dilution antimicrobial susceptibility tests for bacteria that grow aerobically; approved standard-fifth edition. NCCLS document M7-A5 [ISBN 1-56238-394-9]. NCCLS, 940 West Valley Road, Suite 1400, Wayne, Pa. 19087-1898 USA, 2000). The MIC of the compounds of the invention is determined in the liquid dilution test on the 96-well microtiter plate scale. The bacterial microbes are cultivated in a minimal medium (18.5 mM Na2HPO4, 5.7 mM KH2PO4, 9.3 mM NH4Cl, 2.8 mM MgSO4, 17.1 mM NaCl, 0.033 μg/ml thiamine hydrochloride, 1.2 μg/ml nicotinic acid, 0.003 μg/ml biotin, 1% glucose, 25 μg/ml of each proteinogenic amino acid with the exception of phenylalanine; [H.-P. Kroll; unpublished]) with addition of 0.4% BH broth (test medium). In the case of Enterococcus faecalis ICB 27159, heat-inactivated fetal calf serum (FCS; GibcoBRL, Germany) is added to the test medium in a final concentration of 10%. Overnight cultures of the test microbes are diluted to an OD578 of 0.001 (to 0.01 in the case of Enterococci) in fresh test medium, and incubated 1:1 with dilutions of the test substances (1:2 dilution steps) in test medium (150 μl final volume). The cultures are incubated at 37° C. for 18-24 hours; Enterococci in the presence of 5% CO2.
(§3) The lowest substance concentration in each case at which bacterial growth was no longer visible is defined as the MIC. […] The compounds show a graded antibacterial effect against most of the test microbes.

S. aureus RN4220 = experiment: as above; assay type: cell-based; details: Staphylococcus aureus, minimal medium with 0.4% BH broth, 37° C., 18-24 h
Experimental: as §1, §2, §3

S. aureus 133 [2] = experiment: as above; assay type: cell-based
Experimental: as §1, §2, §3

[3] = system: Enterococcus faecalis ICB 27159; experiment: as above; assay type: cell-based; details: ICB27159, test medium with 10% FCS, 5% CO2, 37° C., 18-24 h, read-out: MIC E. faecalis ICB27159
Experimental: as §1, §2, §3

S. aureus 25701 = experiment: as above; assay type: cell-based; details: Staphylococcus aureus, minimal medium with 0.4% BH broth, 37° C., 18-24 h
Experimental: as §1, §2, §3

[4] = target: translation of firefly luciferase, S. aureus 133 S30 extract; experiment: In vitro transcription-translation with S. aureus extracts; assay type: biochemical; details: reporter plasmid pla, 30° C., 60 min, luciferase luminescence
Excerpt: (§4) In vitro Transcription-translation with S. aureus Extracts
(§5) Construction of an S. aureus Luciferase Reporter Plasmid
(§6) A reporter plasmid which can be used in an in vitro transcription-translation assay for S. aureus is constructed by using the plasmid pBESTluc (Promega Corporation, USA). The E. coli tac promoter present in this plasmid in front of the firefly luciferase is replaced by the capAl promoter with appropriate Shine-Dalgarno sequence from S. aureus. The primers CAPFor 5′-[…] […]-3′ and CAPRev 5′-[…]-3′ are used for this. The primer CAPFor contains the capAl promoter, the ribosome binding site and the 5′ region of the luciferase gene. After PCR using pBESTluc as template it is possible to isolate a PCR product which contains the firefly luciferase gene with the fused capAl promoter. This is, after restriction with Clal and HindIII, ligated into the vector pBESTluc which has likewise been digested with ClaI and HindIII. The resulting plasmid pla is able to replicate in E. coli and be used as template in the S. aureus in vitro transcription-translation assay.
(§7) Preparation of S30 Extracts from S. aureus
(§8) Six liters of BHI medium are inoculated with a 250 ml overnight culture of an S. aureus strain and allowed to grow at 37° C. until the OD600 nm is 2-4. The cells are harvested by centrifugation and washed in 500 ml of cold buffer A (10 mM Tris acetate, pH 8.0, 14 mM Mg acetate, 1 mM DTT, 1 M KCl). After renewed centrifugation, the cells are washed in 250 ml of cold buffer A with 50 mM KCl, and the resulting pellets are frozen at −20° C. for 60 min. The pellets are thawed on ice in 30 to 60 min and taken up to a total volume of 99 ml in buffer B (10 mM Tris acetate, pH 8.0, 20 mM Mg acetate, 1 mM DTT, 50 mM KCl). 1.5 ml portions of lysostaphin (0.8 mg/ml) in buffer B are introduced into 3 precooled centrifuge cups and each mixed with 33 ml of the cell suspension. The samples are incubated at 37° C., shaking occasionally, for 45 to 60 min, before 150 μl of a 0.5 M DTT solution are added. The lyzed cells are centrifuged at 30 000×g and 4° C. for 30 min. The cell pellet is taken up in buffer B and then centrifuged again under the same conditions, and the collected supernatants are combined. The supernatants are centrifuged again under the same conditions, and 0.25 volume of buffer C (670 mM Tris acetate, pH 8.0, 20 mM Mg acetate, 7 mM Na3 phosphenolpyruvate, 7 mM DTT, 5.5 mM ATP, 70 μM amino acids (complete from Promega), 75 μg of pyruvate kinase (Sigma, Germany)/ml are added to the upper 2/3 of the supernatant. The samples are incubated at 37° C. for 30 min. The supernatants are dialyzed against 2 l of dialysis buffer (10 mM Tris acetate, pH 8.0, 14 mM Mg acetate, 1 mM DTT, 60 mM K acetate) in a dialysis tube with a 3500 Da cut-off with one buffer change at 4° C. overnight. The dialysate is concentrated to a protein concentration of about 10 mg/ml by covering the dialysis tube with cold PEG 8000 powder (Sigma, Germany) at 4° C. The S30 extracts can be stored in aliquots at −70° C.
(§9) Determination of the IC50 in the S. aureus in vitro Transcription-translation Assay
(§10) Inhibition of protein biosynthesis of the compounds can be shown in an in vitro transcription-translation assay. The assay is based on the cell-free transcription and translation of firefly luciferase using the reporter plasmid pla as template and cell-free S30 extracts obtained from S. aureus. The activity of the resulting luciferase can be detected by luminescence measurement. […]

[5] = target: translation of firefly luciferase, S. aureus RN4220 S30 extract; experiment: as above; assay type: biochemical; details: reporter plasmid pla, 30° C., 60 min, luciferase luminescence
Excerpt: as §4, §5, §6, §7, §8, §9, §10

S. aureus 133 [6] = experiment: Systemic infection with S. aureus 133 (mouse sepsis model); assay type: in vivo; details: female CFW1 mice, i.p. infection, i.v. therapy 30 minutes after infection, survival recorded for 6 days
Experimental: Systemic Infection with S. aureus 133
The suitability of the compounds of the invention for treating bacterial infections can be shown in various animal models. For this purpose, the animals are generally infected with a suitable virulent microbe and then treated with the compound to be tested, which is in a formulation which is adopted to the particular therapy model.
For this purpose, S. aureus 133 cells are cultured overnight in BH broth (Oxoid, Germany). The overnight culture is diluted 1:100 in fresh BH broth and expanded for 3 hours. The bacteria which are in the logarithmic phase of growth are centrifuged and washed 2× with buffered physiological saline solution. A cell suspension in saline solution with an extinction of 50 units is then adjusted in a photometer (Dr. Lange LP 2W). After a dilution step (1:15), this suspension is mixed 1:1 with a 10% strength mucine suspension. 0.2 ml of this infection solution is administered i.p. per 20 g of mouse. This corresponds to a cell count of about 1-2×10E6 microbes/mouse. The i.v. therapy takes place 30 minutes after the infection. Female CFW1 mice are used for the infection test. The survival of the animals is recorded for 6 days. The animal model is adjusted so that untreated animals die within 24 h after the infection.

[7] = Staphylococcus aureus, 133, read-out: MIC S. aureus 133

SMILES	IC50 [1] [nM]	MIC (B. catarrhalis M3) [µM]	MIC (S. aureus RN4220) [µM]	MIC (S. aureus 133 [2]; [7]) [µM]	MIC [3] [µM]	MIC (S. aureus 25701) [µM]	IC50 [4] [nM]	IC50 [5] [nM]	therapeutic effect ED100 (S. aureus 133 [6]) [mg/kg]	MIC (S. aureus 133 [2]; Staphylococcus aureus, 133, minimal medium with 0.4% BH broth, 37° C., 18-24 h, read-out: MIC S. aureus 133) [µM]
NC[C@H](O)C[C@@H]1NC(=O)[C@@H](N)Cc2cc(ccc2O)-c2ccc(O)c(c2)C[C@@H](C(=O)NCc2ccccc2)NC1=O [Example 2, (8S,11S,14S)-14-Amino-11-[(2R)-3-amino-2-hydroxypropyl]-N-benzyl-5,17-dihydroxy-10,13-dioxo-9,12-diazatricyclo[14.3.1.1^2,6]henicosa-1(20),2(21),3,5,16,18-hexaene-8-carboxamide dihydrochloride]	550	25	12.5	25	25	50	1300 to 4500	3400	1.25	–
NC[C@H](O)C[C@@H]1NC(=O)[C@@H](N)Cc2cc(ccc2O)-c2ccc(O)c(c2)C[C@@H](C(=O)NCC(N)=O)NC1=O [Example 37]	–	–	–	–	–	–	500	–	–	0.8 (≈ 0.423 µg/mL)
NC[C@H](O)C[C@@H]1NC(=O)[C@@H](N)Cc2cc(ccc2O)-c2ccc(O)c(c2)C[C@@H](C(N)=O)NC1=O [Example 1, (8S,11S,14S)-14-Amino-11-[(2R)-3-amino-2-hydroxypropyl]-5,17-dihydroxy-10,13-dioxo-9,12-diazatricyclo[14.3.1.1^2,6]henicosa-1(20),2(21),3,5,16,18-hexaene-8-carboxamide dihydrochloride]	150	1.56	0.1	0.2	6.25	6.25	900	500	–	–
